Measured values: PubChem BioAssay AID248 (DTP/NCI, 2004)
Toxic doses and inconclusive results are not listed.

Test system: L1210 leukemia ip in BDF1 mice, survival T/C
Assay: NCI In Vivo Anticancer Drug Screen. Data for tumor model L1210 Leukemia (intraperitoneal) in B6D2F1 (BDF1) mice
Conditions: endpoint: mean survival time, higher = longer survival
Summary of the method: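 Antitumor effect is assessed in tumor-bearing animals. Survival in the compound arm is compared with a vehicle-dosed control arm and expressed as their quotient.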

[1] = dose: 25.0 mg/kg/injection, schedule: Q01DX009 (ip), vehicle: saline
[2] = dose: 50.0 mg/kg/injection, schedule: Q01DX009 (ip), vehicle: saline
[3] = dose: 100.0 mg/kg/injection, schedule: Q01DX009 (ip), vehicle: saline
[4] = dose: 100.0 mg/kg/injection, schedule: Q04DX003 (ip), vehicle: saline
[5] = dose: 200.0 mg/kg/injection, schedule: Q01DX009 (ip), vehicle: saline
[6] = dose: 200.0 mg/kg/injection, schedule: Q04DX003 (ip), vehicle: saline
[7] = dose: 400.0 mg/kg/injection, schedule: Q01DX009 (ip), vehicle: saline
[8] = dose: 400.0 mg/kg/injection, schedule: Q04DX003 (ip), vehicle: saline
[9] = dose: 100.0 mg/kg/injection, schedule: Q04DX003 (ip), vehicle: Klucel (hydroxypropylcellulose) (HPC)
[10] = dose: 200.0 mg/kg/injection, schedule: Q01DX009 (ip), vehicle: Klucel (hydroxypropylcellulose) (HPC)
[11] = dose: 200.0 mg/kg/injection, schedule: Q04DX003 (ip), vehicle: Klucel (hydroxypropylcellulose) (HPC)
[12] = dose: 400.0 mg/kg/injection, schedule: Q04DX003 (ip), vehicle: Klucel (hydroxypropylcellulose) (HPC)
[13] = dose: 100.0 mg/kg/injection, schedule: Q04DX002 (ip), vehicle: gum acacia
[14] = dose: 200.0 mg/kg/injection, schedule: Q04DX002 (ip), vehicle: gum acacia
[15] = dose: 400.0 mg/kg/injection, schedule: Q04DX002 (ip), vehicle: gum acacia
[16] = dose: 50.0 mg/kg/injection, schedule: Q01DX009 (ip), vehicle: Klucel (hydroxypropylcellulose) (HPC)
[17] = dose: 100.0 mg/kg/injection, schedule: Q01DX009 (ip), vehicle: Klucel (hydroxypropylcellulose) (HPC)
[18] = dose: 25.0 mg/kg/injection, schedule: Q04DX003 (ip), vehicle: Klucel (hydroxypropylcellulose) (HPC)
[19] = dose: 50.0 mg/kg/injection, schedule: Q04DX003 (ip), vehicle: Klucel (hydroxypropylcellulose) (HPC)

Which T/C [1] does the source give for CSc1cc(C)c(OC(=O)Nc2cc(C)ccc2C)c(C)c1 here?
Its T/C is 98 % of control.

And the T/C [2]?
The T/C was 93 % of control.

And the T/C [3]?
Its T/C is 91 % of control.

And the T/C [4]?
Its T/C is 107 % of control.

What about the T/C [5] of the same molecule?
The T/C was 91 % of control.

And the T/C [6]?
The T/C was 98 % of control.

What about the T/C [7] of the same molecule?
The T/C was 106 % of control.

What about the T/C [8] of the same molecule?
Its T/C is 95 % of control.

Which results are given for NNc1ccc(Cl)c(S(=O)(=O)O)c1?
T/C [3]: 100 % of control; T/C (dose: 100.0 mg/kg/injection, schedule: Q04DX003 (ip), vehicle: alcohol): 98 % of control; T/C [5]: 100 % of control; T/C (dose: 200.0 mg/kg/injection, schedule: Q04DX003 (ip), vehicle: alcohol): 104 % of control; T/C [7]: 103 % of control; T/C (dose: 400.0 mg/kg/injection, schedule: Q04DX003 (ip), vehicle: alcohol): 106 % of control

For Brc1cccc2c1C[n+]1ccccc1-2, which T/C (dose: 75.0 mg/kg/injection, schedule: Q01DX001 (ip), vehicle: saline) is on record?
Its T/C is 96 % of control.

What about the T/C (dose: 150.0 mg/kg/injection, schedule: Q01DX001 (ip), vehicle: saline) of the same molecule?
Its T/C is 92 % of control.

Which T/C (dose: 100.0 mg/kg/injection, schedule: Q01DX009 (ip), vehicle: water) does the source give for CC(=O)n1ncc2ccc([N+](=O)[O-])cc21 here?
Its T/C is 105 % of control.

What about the T/C (dose: 100.0 mg/kg/injection, schedule: Q04DX003 (ip), vehicle: water) of the same molecule?
Its T/C is 93 % of control.

What about the T/C (dose: 200.0 mg/kg/injection, schedule: Q01DX009 (ip), vehicle: water) of the same molecule?
Its T/C is 105 % of control.

And the T/C (dose: 200.0 mg/kg/injection, schedule: Q04DX003 (ip), vehicle: water)?
The T/C was 100 % of control.

What about the T/C (dose: 400.0 mg/kg/injection, schedule: Q01DX009 (ip), vehicle: water) of the same molecule?
The T/C was 107 % of control.

What about the T/C (dose: 400.0 mg/kg/injection, schedule: Q04DX003 (ip), vehicle: water) of the same molecule?
The T/C was 96 % of control.

For CC(C)(O)/C=C/C(=O)[C@](C)(O)[C@H]1[C@H](O)C[C@@]2(C)[C@@H]3CC=C4[C@@H](C[C@H](O)C(=O)C4(C)C)[C@]3(C)C(=O)C[C@]12C, which T/C (dose: 0.5 mg/kg/injection, schedule: Q01DX001 (sc), vehicle: steriod suspending solution) is on record?
Its T/C is 102 % of control.

And the T/C (dose: 1.0 mg/kg/injection, schedule: Q01DX001 (sc), vehicle: steriod suspending solution)?
Its T/C is 98 % of control.

C/C=C(/Cl)c1c(C)cc(C)c(CC(=O)O)c1C was tested. Which T/C [9] did it give?
The T/C was 92 % of control.

And the T/C (dose: 130.0 mg/kg/injection, schedule: Q01DX009 (ip), vehicle: Klucel (hydroxypropylcellulose) (HPC))?
Its T/C is 110 % of control.

And the T/C [10]?
The T/C was 114 % of control.

And the T/C [11]?
Its T/C is 90 % of control.

What about the T/C [12] of the same molecule?
Its T/C is 105 % of control.

What does the source list for O=C1/C(=C/c2ccccc2)CCC/C1=C\c1ccccc1?
T/C (dose: 100.0 mg/kg/injection, schedule: Q04DX002 (ip), vehicle: saline with Tween-80): 92 % of control; T/C (dose: 200.0 mg/kg/injection, schedule: Q04DX002 (ip), vehicle: saline with Tween-80): 92 % of control; T/C (dose: 400.0 mg/kg/injection, schedule: Q04DX002 (ip), vehicle: saline with Tween-80): 95 % of control

With CC(C)(C)C(=O)c1nn[nH]n1 as the molecule, how does the T/C [2] read?
The T/C was 91 % of control.

What about the T/C (dose: 100.0 mg/kg/injection, schedule: Q01DX001 (ip), vehicle: saline) of the same molecule?
The T/C was 104 % of control.

What about the T/C [3] of the same molecule?
Its T/C is 98 % of control.

And the T/C (dose: 200.0 mg/kg/injection, schedule: Q01DX001 (ip), vehicle: saline)?
The T/C was 102 % of control.

Which results are given for Clc1ccccc1-n1cc(-c2ccccc2)nn1?
T/C (dose: 100.0 mg/kg/injection, schedule: Q04DX002 (ip), vehicle: Klucel (hydroxypropylcellulose) (HPC)): 114 % of control; T/C (dose: 200.0 mg/kg/injection, schedule: Q04DX002 (ip), vehicle: Klucel (hydroxypropylcellulose) (HPC)): 108 % of control; T/C (dose: 400.0 mg/kg/injection, schedule: Q04DX002 (ip), vehicle: Klucel (hydroxypropylcellulose) (HPC)): 108 % of control

CC12CCC(O)CC1CCC1C2CCC2(C)C(C(=O)O)CCC12 (stereo not given) was tested. Which T/C [13] did it give?
Its T/C is 99 % of control.

And the T/C [14]?
Its T/C is 86 % of control.

What about the T/C [15] of the same molecule?
The T/C was 89 % of control.

How did the T/C (dose: 0.6 mg/kg/injection, schedule: Q01DX009 (ip), vehicle: saline) turn out when CCCCOC(=O)C(N)Cc1ccc(OC)c(N(CCCl)CCCl)c1 (stereo not given) was run?
The T/C was 93 % of control.

And the T/C (dose: 0.75 mg/kg/injection, schedule: Q01DX001 (ip), vehicle: saline)?
Its T/C is 108 % of control.

What about the T/C (dose: 1.3 mg/kg/injection, schedule: Q01DX009 (ip), vehicle: saline) of the same molecule?
Its T/C is 191 % of control.

And the T/C (dose: 1.5 mg/kg/injection, schedule: Q01DX001 (ip), vehicle: saline)?
Its T/C is 118 % of control.

And the T/C (dose: 2.0 mg/kg/injection, schedule: Q01DX009 (ip), vehicle: saline)?
Its T/C is 162 % of control.

What about the T/C (dose: 2.6 mg/kg/injection, schedule: Q01DX001 (ip), vehicle: saline) of the same molecule?
The T/C was 109 % of control.

And the T/C (dose: 3.0 mg/kg/injection, schedule: Q01DX009 (ip), vehicle: saline)?
The T/C was 107 % of control.

What about the T/C (dose: 6.0 mg/kg/injection, schedule: Q01DX001 (ip), vehicle: saline) of the same molecule?
Its T/C is 118 % of control.

And the T/C (dose: 12.0 mg/kg/injection, schedule: Q01DX001 (ip), vehicle: saline)?
The T/C was 120 % of control.

How did the T/C [3] turn out when [O]=[Sn]([OH])[OH] was run?
Its T/C is 97 % of control.

What about the T/C [5] of the same molecule?
The T/C was 94 % of control.

Which T/C [1] does the source give for N#CCN1CCCCC1 here?
Its T/C is 115 % of control.

And the T/C [2]?
Its T/C is 112 % of control.

What does the source list for CCCCCCCCCCCC(=O)Nc1cc(C)ccc1N=Nc1ccc(C)cc1?
T/C [16]: 86 % of control; T/C [17]: 95 % of control; T/C [10]: 88 % of control; T/C (dose: 400.0 mg/kg/injection, schedule: Q01DX009 (ip), vehicle: Klucel (hydroxypropylcellulose) (HPC)): 90 % of control

How did the T/C [2] turn out when CCCCCCC(Cl)CCl (stereo not given) was run?
Its T/C is 97 % of control.

And the T/C [3]?
The T/C was 110 % of control.

What about the T/C [4] of the same molecule?
Its T/C is 103 % of control.

And the T/C [6]?
The T/C was 115 % of control.

And the T/C [8]?
Its T/C is 108 % of control.

What does the source list for NNc1nc(Cl)nc(C(Cl)(Cl)Cl)c1Cl (tested in a mixture with another compound)?
T/C [16]: 87 % of control; T/C [17]: 87 % of control; T/C [10]: 89 % of control

With COC1N(c2ccccc2)CCN1c1ccccc1 as the molecule, how does the T/C [13] read?
Its T/C is 109 % of control.

What about the T/C [14] of the same molecule?
Its T/C is 106 % of control.

What about the T/C [15] of the same molecule?
Its T/C is 106 % of control.

Nc1ccc(-c2ccc(NC(=O)C(=O)O)cc2)cc1 was tested. Which T/C (dose: 12.5 mg/kg/injection, schedule: Q04DX003 (ip), vehicle: Klucel (hydroxypropylcellulose) (HPC)) did it give?
The T/C was 101 % of control.

And the T/C (dose: 25.0 mg/kg/injection, schedule: Q01DX009 (ip), vehicle: Klucel (hydroxypropylcellulose) (HPC))?
Its T/C is 95 % of control.

What about the T/C [18] of the same molecule?
Its T/C is 97 % of control.

And the T/C [16]?
Its T/C is 97 % of control.

And the T/C [19]?
The T/C was 111 % of control.

And the T/C [17]?
Its T/C is 100 % of control.

And the T/C [9]?
Its T/C is 111 % of control.

Which T/C [16] does the source give for CC(=O)Nc1ccccc1C(=O)C(N)=O here?
Its T/C is 100 % of control.

And the T/C [17]?
Its T/C is 94 % of control.

What about the T/C [9] of the same molecule?
Its T/C is 96 % of control.

And the T/C [10]?
The T/C was 96 % of control.

What about the T/C [11] of the same molecule?
The T/C was 95 % of control.

What about the T/C [12] of the same molecule?
Its T/C is 98 % of control.

For Cc1cc(C(=O)O)c(C)[nH]1, which T/C [18] is on record?
Its T/C is 105 % of control.

What about the T/C [19] of the same molecule?
Its T/C is 100 % of control.

What about the T/C (dose: 75.0 mg/kg/injection, schedule: Q04DX003 (ip), vehicle: Klucel (hydroxypropylcellulose) (HPC)) of the same molecule?
Its T/C is 101 % of control.

What about the T/C [9] of the same molecule?
The T/C was 93 % of control.

What about the T/C [11] of the same molecule?
Its T/C is 95 % of control.

What about the T/C [12] of the same molecule?
The T/C was 101 % of control.

Which T/C (dose: 10.0 mg/kg/injection, schedule: Q01DX001 (ip), vehicle: saline) does the source give for C[N+]1(C)C2CCCCC1CC(=O)C2 here?
The T/C was 96 % of control.

What about the T/C (dose: 20.0 mg/kg/injection, schedule: Q01DX001 (ip), vehicle: saline) of the same molecule?
The T/C was 98 % of control.

What about the T/C (dose: 40.0 mg/kg/injection, schedule: Q01DX001 (ip), vehicle: saline) of the same molecule?
The T/C was 95 % of control.

What does the source list for O=C1CCC(=O)N1CCCO?
T/C [4]: 107 % of control; T/C [6]: 100 % of control; T/C [8]: 104 % of control
